# Tests used:
# mTOR = molecular target: T1, mTOR (Homo sapiens, UniProt P42345); assay: Biochemical assay for m-TOR by TR-FRET; conditions: read-out: EPK_mTOR/IC50
# T1 construct: purchased Invitrogen Corporation (Carlsbad/Calif., USA) PV4753
# Summary of the method: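 mTOR (0.5 nM) phosphorylates GFP-4EBP1 (400 nM) with 8 μM ATP at rt in 50 mM HEPES pH 7.5, 10 mM MnCl2, 50 mM NaCl, 1 mM EGTA, 1 mM DTT; compounds 0.003–10 μM final. EDTA stop with Tb-anti-p4EBP1[pT46] antibody (0.5 nM); TR-FRET read after 15 min against no-enzyme and vehicle controls.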
# PI3K beta = molecular target: T2, PI3K beta (Homo sapiens, UniProt P42338); assay: PI3K beta kinase assay (Kinase-Glo luminescence); format: biochemical; conditions: read-out: EPK_PI3Kbeta/IC50
# T2 construct: for the full-length p110-b subunit are generated and fused by overlapping PCR; His tag (C); made in house; host or cells: baculovirus BV949; Tn5 (Trichoplusia ni) or TiniPro insect cells
# T2 sequence (P42338 with tags, fused parts or gaps limits assumed): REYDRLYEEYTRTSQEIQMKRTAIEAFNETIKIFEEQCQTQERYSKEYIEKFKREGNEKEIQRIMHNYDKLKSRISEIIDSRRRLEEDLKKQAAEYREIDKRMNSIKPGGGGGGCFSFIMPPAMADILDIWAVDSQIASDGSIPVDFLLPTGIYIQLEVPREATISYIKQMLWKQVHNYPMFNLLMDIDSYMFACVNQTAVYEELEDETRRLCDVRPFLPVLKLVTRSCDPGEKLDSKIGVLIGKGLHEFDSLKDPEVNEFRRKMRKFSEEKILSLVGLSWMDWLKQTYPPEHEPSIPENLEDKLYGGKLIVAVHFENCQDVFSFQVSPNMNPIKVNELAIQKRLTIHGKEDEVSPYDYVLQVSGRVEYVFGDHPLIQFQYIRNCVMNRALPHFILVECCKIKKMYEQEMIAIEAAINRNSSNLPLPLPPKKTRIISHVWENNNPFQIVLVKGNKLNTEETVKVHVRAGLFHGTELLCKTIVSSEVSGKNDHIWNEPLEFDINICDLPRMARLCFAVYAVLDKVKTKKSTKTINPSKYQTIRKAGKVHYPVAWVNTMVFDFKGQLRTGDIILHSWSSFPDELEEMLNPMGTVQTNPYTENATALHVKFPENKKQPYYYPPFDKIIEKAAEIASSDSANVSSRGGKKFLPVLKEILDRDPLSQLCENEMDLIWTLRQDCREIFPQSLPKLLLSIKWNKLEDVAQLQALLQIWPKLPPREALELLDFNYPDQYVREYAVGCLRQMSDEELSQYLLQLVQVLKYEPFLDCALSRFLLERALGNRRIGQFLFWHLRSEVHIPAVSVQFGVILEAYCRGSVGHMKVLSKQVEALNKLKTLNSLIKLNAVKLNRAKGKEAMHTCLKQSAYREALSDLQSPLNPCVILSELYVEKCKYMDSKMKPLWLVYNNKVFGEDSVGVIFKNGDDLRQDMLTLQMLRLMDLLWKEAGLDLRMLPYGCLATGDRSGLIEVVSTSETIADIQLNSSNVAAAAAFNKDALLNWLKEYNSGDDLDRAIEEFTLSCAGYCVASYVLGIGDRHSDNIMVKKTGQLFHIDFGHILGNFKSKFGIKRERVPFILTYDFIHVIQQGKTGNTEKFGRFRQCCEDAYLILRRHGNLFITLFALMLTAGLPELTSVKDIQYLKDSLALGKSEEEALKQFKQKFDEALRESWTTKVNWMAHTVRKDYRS
# Summary of the method: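 PI3Kβ construct BV949 (p85 iSH2–p110β full-length, C-His), 25 nM, reacted with 1 μM ATP and 10 μg/mL phosphatidylinositol in Tris pH 7.5, MgCl2, NaCl, CHAPS, DTT buffer, 60 min at room temperature. Remaining ATP by Kinase-Glo luminescence; IC50 from 4-parameter logistic fit of 8 concentrations.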
# PI3K alfa = molecular target: T3, PI3K alfa (Homo sapiens, UniProt P42336); assay: PI3K alpha kinase assay (Kinase-Glo luminescence); format: biochemical; conditions: read-out: EPK_PI3Kalfa/IC50
# T3 construct: His tag (C); made in house; host or cells: baculovirus BV1075; Tn5 (Trichoplusia ni) or TiniPro insect cells
# T3 sequence (P42336 with tags, fused parts or gaps limits assumed): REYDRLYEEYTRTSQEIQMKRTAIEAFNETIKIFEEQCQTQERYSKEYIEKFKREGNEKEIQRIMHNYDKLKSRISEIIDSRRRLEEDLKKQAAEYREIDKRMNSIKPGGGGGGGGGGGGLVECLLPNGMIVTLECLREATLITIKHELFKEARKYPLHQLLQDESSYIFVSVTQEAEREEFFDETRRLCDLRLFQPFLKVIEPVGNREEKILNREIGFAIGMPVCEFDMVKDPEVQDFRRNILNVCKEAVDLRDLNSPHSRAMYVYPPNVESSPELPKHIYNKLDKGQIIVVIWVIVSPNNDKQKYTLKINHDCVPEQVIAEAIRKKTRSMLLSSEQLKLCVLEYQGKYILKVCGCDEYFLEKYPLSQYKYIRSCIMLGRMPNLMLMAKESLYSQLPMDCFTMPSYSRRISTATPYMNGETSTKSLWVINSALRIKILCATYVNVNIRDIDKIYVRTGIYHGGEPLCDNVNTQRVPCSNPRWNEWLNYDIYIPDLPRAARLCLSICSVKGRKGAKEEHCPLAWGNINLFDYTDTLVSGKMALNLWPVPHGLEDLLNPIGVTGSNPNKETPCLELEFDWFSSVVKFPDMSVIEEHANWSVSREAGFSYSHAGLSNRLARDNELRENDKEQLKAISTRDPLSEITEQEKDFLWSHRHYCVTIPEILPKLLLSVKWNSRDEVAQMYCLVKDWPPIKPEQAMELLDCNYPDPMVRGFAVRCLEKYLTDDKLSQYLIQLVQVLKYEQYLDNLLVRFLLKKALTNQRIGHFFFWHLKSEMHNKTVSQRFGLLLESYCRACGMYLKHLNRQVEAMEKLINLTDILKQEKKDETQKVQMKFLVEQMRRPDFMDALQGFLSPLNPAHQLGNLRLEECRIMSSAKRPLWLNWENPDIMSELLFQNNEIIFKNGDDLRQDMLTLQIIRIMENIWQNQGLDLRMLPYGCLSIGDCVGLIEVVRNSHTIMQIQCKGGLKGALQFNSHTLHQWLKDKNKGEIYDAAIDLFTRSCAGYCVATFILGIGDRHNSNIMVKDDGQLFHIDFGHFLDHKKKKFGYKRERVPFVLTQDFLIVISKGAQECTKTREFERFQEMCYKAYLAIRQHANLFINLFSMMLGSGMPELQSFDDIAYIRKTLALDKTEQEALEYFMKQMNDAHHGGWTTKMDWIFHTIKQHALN
# Summary of the method: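 Kinase-Glo luminescence read of ATP remaining after PI3Kα (10 nM) phosphorylates 10 μg/mL bovine liver phosphatidylinositol with 1 μM ATP, pH 7.5 TRIS, 3 mM MgCl2, 0.05% CHAPS; 60 min at room temperature. IC50 from 4-parameter logistic fit over 8 concentrations.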
# T1 sequence (P42345 1360-2549 limits assumed): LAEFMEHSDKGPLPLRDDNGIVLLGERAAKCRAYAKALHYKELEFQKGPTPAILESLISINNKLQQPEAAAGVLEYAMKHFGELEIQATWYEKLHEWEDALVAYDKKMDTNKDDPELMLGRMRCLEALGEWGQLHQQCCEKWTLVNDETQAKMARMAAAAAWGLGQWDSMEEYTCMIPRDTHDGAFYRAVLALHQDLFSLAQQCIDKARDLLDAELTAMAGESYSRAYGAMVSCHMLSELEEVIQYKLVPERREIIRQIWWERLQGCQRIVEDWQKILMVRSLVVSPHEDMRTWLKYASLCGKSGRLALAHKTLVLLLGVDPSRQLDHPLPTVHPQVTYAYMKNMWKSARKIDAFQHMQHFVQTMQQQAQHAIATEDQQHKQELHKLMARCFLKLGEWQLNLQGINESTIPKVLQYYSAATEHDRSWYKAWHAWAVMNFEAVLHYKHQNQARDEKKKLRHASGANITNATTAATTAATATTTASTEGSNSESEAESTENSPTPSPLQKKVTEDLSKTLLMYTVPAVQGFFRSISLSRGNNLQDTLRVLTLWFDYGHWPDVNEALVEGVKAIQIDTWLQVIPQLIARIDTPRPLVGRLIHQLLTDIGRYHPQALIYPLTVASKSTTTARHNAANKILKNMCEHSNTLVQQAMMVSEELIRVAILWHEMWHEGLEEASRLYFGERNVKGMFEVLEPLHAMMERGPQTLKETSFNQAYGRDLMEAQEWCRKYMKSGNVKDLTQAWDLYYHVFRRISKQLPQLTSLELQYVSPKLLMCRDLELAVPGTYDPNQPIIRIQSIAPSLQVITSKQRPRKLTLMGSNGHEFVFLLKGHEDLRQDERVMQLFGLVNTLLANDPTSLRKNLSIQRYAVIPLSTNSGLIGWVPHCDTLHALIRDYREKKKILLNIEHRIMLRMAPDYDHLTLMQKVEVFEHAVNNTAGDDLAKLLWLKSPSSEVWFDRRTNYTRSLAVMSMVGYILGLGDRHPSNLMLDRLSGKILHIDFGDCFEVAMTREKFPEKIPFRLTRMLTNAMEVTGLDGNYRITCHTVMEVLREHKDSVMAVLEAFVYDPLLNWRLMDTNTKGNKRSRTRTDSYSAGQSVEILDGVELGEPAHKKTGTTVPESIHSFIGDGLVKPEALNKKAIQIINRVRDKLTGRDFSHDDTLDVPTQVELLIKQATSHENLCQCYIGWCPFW
IC50 (mTOR) [µM],IC50 (PI3K beta) [µM],IC50 (PI3K alfa) [µM],SMILES
0.447,0.359,0.127,"COCc1ncc(-c2ccc3ncc4c(c3c2)n(-c2ccc(F)nc2C)c(=O)n4C)cc1OC [Example 7.7, 1-(6-Fluoro-2-methyl-pyridin-3-yl)-8-(5-methoxy-6-methoxymethyl-pyridin-3-yl)-3-methyl-1,3-dihydro-imidazo[4,5-c]quinolin-2-one]"
0.045,0.0785,0.027,"CCNc1cc(-c2ccc3ncc4c(c3c2)n(-c2ccc(N3CC(F)(F)C(F)(F)C3)nc2C)c(=O)n4C)cnc1CO [Example 35.2, 8-(5-Ethylamino-6-hydroxymethyl-pyridin-3-yl)-3-methyl-1-[2-methyl-6-(3,3,4,4-tetrafluoro-pyrrolidin-1-yl)-pyridin-3-yl]-1,3-dihydro-imidazo[4,5-c]quinolin-2-one]"
0.655,0.269,0.027,"COc1cc(-c2ccc3ncc4c(c3c2)n(-c2ccc(N3CCCC3)nc2C)c(=O)n4C)cnc1CO [Example 25.4, 8-(6-Hydroxymethyl-5-methoxy-pyridin-3-yl)-3-methyl-1-(2-methyl-6-pyrrolidin-1-yl-pyridin-3-yl)-1,3-dihydro-imidazo[4,5-c]quinolin-2-one]"
